Results as given in publication PMC9182086, “Identification of New Non-BBB Permeable Tryptophan Hydroxylase Inhibitors for Treating Obesity and Fatty Liver Disease” (Molecules, 2022).

What was measured:
[1] = Liver microsomal stability (rat); type: in vitro ADME
Experimental: For the liver microsomal activity, test compounds were incubated with rat and mouse’s liver microsomes, respectively, at a final concentration of 1 µM, in the presence of an NADPH regeneration system in 0.1 M potassium phosphate buffer (pH 7.4) for […] at 37 °C in shaking incubator. The microsomal reaction was terminated by adding four volumes of ice-cold acetonitrile and then centrifuged at 4000 rpm for 20 min. The supernatant was collected and analyzed by a LC-MS/MS system. The percentage of the parent compound remaining was calculated by comparing peak areas.

[2] = Blood brain barrier PK: plasma and brain levels after iv dosing; type: in vivo, male SD rats; settings: male rats, 5 mg/kg iv; for BBB penetration: brain level: BQL = below the quantification limit
Experimental: The biodistribution study in plasma and brain tissue was performed using eight-week-old male SD rats (Orient Bio Inc., Seongnam, Korea). Dosing vehicles were composed of DMSO, PEG400, and deionized water (5:40:55, v/v/v). 18i compound was administrated at a dose of 5 mg/kg via intravenous (I.V.). […] Brain tissues were rinsed with saline and four volumes of acetronitrile containing disopyramide were added as an internal standard for LC-MS/MS analysis. The brain samples were homogenized using a sonicator (IKA Labortechnik T10 basic ULTRA-TURRAX, Staufen, Germany) for 10 s on the ice. The plasma samples were added to nine volumes of acetonitrile and vortexed for 5 min. The samples were centrifuged (15,000 RPM, 4 °C, 10 min). The supernatant was collected and analyzed by an LC-MS/MS system.
The LC-MS/MS analysis was performed on an Agilent 1200 series (Agilent Technologies, Santa Clara, CA, USA) with an API 4000 linear ion trap triple quadruple mass spectrometer (AB Sciex, CA, USA). The chromatographic separation of the drug was carried out using a kinetex column (100 × 2.1 mm, 3 μm, Phenomenex, CA USA) with a SecurityGuard C18 guard column (4 mm × 2.0 mm i.d., Phenomenex). The flow rate was 300 µL/min with a mobile phase consisting of 0.1% formic acid in water (eluent A) and 0.1% formic acid in acetonitrile (eluent B) by linear gradient condition as follows: starting with 0 to 0.3 min, B: 5%; 0.3 to 2.5 min, B: 5 → 95%; 2.5 to 2.9 min, B: 95%; 2.9 to 3.0 min, B: 95 → 5%, and then re-equilibrated to initial conditions until 3 min. The total run time was 6 min and the injection volume of 5 μL.

[3] = test system: HFD-fed C57BL/6J mice; test: In vivo efficacy test in high-fat diet fed mice; parameters: species or system mouse; settings: vs vehicle
Experimental: All animal study protocols were approved by the Institutional Animal Care and Use Committee at the Korea Advanced Institute of Science and Technology. Male C57BL/6J mice were purchased from SLC (Shizuoka, Japan) and acclimatized for a week. Mice were housed in a humidity and temperature-controlled environment under a 12 h light-dark cycle with ad libitum access to water and food. After acclimatization, male mice were fed a high-fat diet (HFD, 60% fat calories, Research diet; New Brunswick, NJ) and received daily treatment with TPH1 inhibitors. […] Compound 18i was dissolved in 5% dimethyl sulfoxide (DMSO) (Sigma, St. Louis, MO, USA) and 25% β-cyclodextrin (Sigma, St. Louis, MO, USA). Vehicle or compound 18i (100 mg kg^−1) was injected intraperitoneally in mice for 10 days after two weeks of HFD feeding. Both compounds 19 and 21 were prepared in 10% DMSO and 10% Kolliphor EL (Sigma, St. Louis, MO, USA). Vehicle and 100 mg kg^−1 of compound 19 or compound 21 were administered daily by intraperitoneal injection or oral feeding, respectively, concomitant to the initiation of HFD feeding. For analyzing blood glucose concentration, glucose in blood collected from the tail vein was measured after fasting mice for 16 h using a Gluco Dr. Top glucometer (Allemedicus, Anyang, Korea). Body weight was measured daily and mice were sacrificed for harvesting adipose tissue and liver.
Tissue samples were fixed in 10% formalin, embedded in paraffin, and cut into 5 μm thick sections, followed by deparaffinization and rehydration for H&E staining and UCP1 immunohistochemistry. After heat-induced antigen retrieval with a citrate buffer (pH 6.0) for 10 min at 95°C, tissue sections were incubated with BLOXALL Blocking solution (Vector Laboratories, Burlingame, CA, USA) to block endogenous peroxidase, followed by incubation with 2% normal goat serum in phosphate-buffered saline (PBS) for 30 min at room temperature to block nonspecific binding. Sections were incubated overnight with the anti-UCP1 primary antibody diluted 1:200 in 2% normal goat serum in PBS (Abcam, Cambridge, UK) at 4 °C, followed by 30 min incubation with biotinylated anti-rabbit IgG secondary antibody diluted 1:400 in PBS for 30 min at room temperature. After incubation with Vectastain […] reagent (Vector Laboratories) for 30 min, peroxidase activity was visualized with 3,3′-diaminobenzidine substrates (Vector Laboratories). For measuring average adipocyte size, we analyzed three random fields of H&E stained micrographs per adipose tissue sample from two representative mice of each group using AdipoCount software.
Fresh liver tissues were flash frozen in O.C.T. compound (Sakura Finetek, Torrance, CA, USA) and 10 μm cryostat sections were collected on glass slides. Sections were allowed to air-dry for 1 h, rinsed with PBS for 5 min, and washed with distilled water for 5 min. After washing, sections were placed in 30% isopropanol for 5 min, 60% isopropanol for 5 min twice, and then stained in Oil Red O solution (0.5% Oil red O (Sigma, St. Louis, MO, USA) dissolved in 60% isopropanol) for 15 min. The stained sections were rinsed twice with distilled water, mounted, coverslipped, and documented using bright field microscopy.

In the case of `Cc1ccn(-c2cc(Cl)ccc2[C@@H](Oc2ncnc3c(-c4ccc(C[C@H](N)C(=O)O)cc4)csc23)C(F)(F)F)n1.Cl` [Compound 18i, (S)-2-amino-3-(4-(4-((R)-1-(4-chloro-2-(3-methyl-1H-pyrazol-1-yl)phenyl)-2,2,2-trifluoroethoxy)thieno[3,2-d]pyrimidin-7-yl)phenyl)propanoic acid hydrochloride], the “Liver microsomal stability (rat), parent remained” value ([1]; after 30 min incubation, 1 µM) is reported as 99% parent remained after 30 min incubation, the “Liver microsomal stability, remained” value ([1]; after incubation for 30 min, species not given) is reported as 99% and the concentration at 0.5 h ([2]; SD, rat, plasma, 0.5 h, read-out: BBB penetration: plasma level) is reported as 2270 ng/mL. For the same compound, the concentration at 3 h ([2]; SD, rat, plasma, 3 h, read-out: BBB penetration: plasma level) was 1440 ng/mL, the “BBB penetration: plasma level” value ([2]; 0.5 h) was “Plasma: 0.5 h: 2266 ng/mL” and the “BBB penetration: brain level” value ([2]; 0.5 h) was “Brain: 0.5 h: BQL ^a”. For the same compound, the “BBB penetration: plasma level” value ([2]; 3 h) was 3 h: 1439 ng/mL, the “BBB penetration: brain level” value ([2]; 3 h) was 3 h: BQL and the “level below the quantification limit (text says plasma)” value ([2]; time not stated) was under 7 ng/mL. For the same compound, the Body weight gain ([3]; 100 mg/kg ip daily for 10 days after two weeks of HFD) was “blunted weight gain”, the “eWAT and BAT adipocyte size (histology)” value ([3]; 100 mg/kg ip daily for 10 days) was “significant reduction” and the “Fasting blood glucose levels” value ([3]; 16 h fasting) was “lower fasting blood glucose levels”.
